# Assays:
# Format in all cases: cell-based
# AR / CBP ternary complex = AR / CBP ternary complex (Homo sapiens, UniProt P10275+Q92793); assay: Ternary complex formation assay (sandwich ELISA, AR capture, CBP antibody detection) in VCaP cell lysates; conditions: treated 1.5 hours, rabbit CBP or p300 antibody detection, average, read-out: Average Ternary Complex
# In short: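 VCaP cells in 5% charcoal-stripped FBS were cultured ≥3 days and then given bifunctional compound for 1.5 h. Lysates went onto AR-antibody-coated plates. Bound CBP (or p300) was detected with a rabbit antibody plus HRP anti-rabbit, using QuantaRed chemifluorescence (ex 570/em 585) read immediately, at 5 min and at 15 min.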
# HEK-293 cells = assay: HEK-293 growth inhibition assay (CTG); conditions: Homo sapiens, HEK293, 72 h, 3 days
# Method: HEK-293 cells (ATCC Cat #CRL-1573) are plated at 3×10^3 cells per well of a white plastic 96-well cluster plate (Thermo Scientific Nunc Cat #165306) in 200 uL DMEM (ATCC Cat #30-2002) media with 10% FBS (Gibco Cat #26140-079). Cluster plates are returned to the incubator (37*C/5% CO2) for 24 hours prior to treatment. Compounds (200X) were added to each well in a volume of 1 uL, with serial dilutions (1:5) from 2 mM to 200 pM (final concentrations in well are 10 uM to 1 pM). Cluster plates are returned to the incubator for 3 days.
# After the 3-day treatment period, 100 uL media was removed from each well by aspiration and 100 uL room temperature CTG reagent (Promega Cat #G7573) is added back to each well. The cluster plates are placed on a shaker and incubated at room temperature for 20 minutes. Following this shaking/incubation, cluster plates are read on a luminometer (BMG ClarioStar). IC50 values are obtained by graphing the RLU data vs. compound concentration with nonlinear regression 4-parameter logistic curves (GraphPad Prism).
# VCaP cells = assay: VCaP growth inhibition assay (CTG); conditions: Homo sapiens, 216 h, 30 pM R1881, 9 days
# In short: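 VCaP cells in phenol red-free DMEM with 5% charcoal-stripped serum were stimulated with 30 pM R1881 (final) and treated with compound from 100 nM to 10 fM final (1:5 dilutions) for 9 days at 37 °C. Viability was read by CellTiter-Glo luminescence, and IC50 came from 4-parameter logistic fits.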
# AR / CBP ternary complex, sequence (P10275 whole entry): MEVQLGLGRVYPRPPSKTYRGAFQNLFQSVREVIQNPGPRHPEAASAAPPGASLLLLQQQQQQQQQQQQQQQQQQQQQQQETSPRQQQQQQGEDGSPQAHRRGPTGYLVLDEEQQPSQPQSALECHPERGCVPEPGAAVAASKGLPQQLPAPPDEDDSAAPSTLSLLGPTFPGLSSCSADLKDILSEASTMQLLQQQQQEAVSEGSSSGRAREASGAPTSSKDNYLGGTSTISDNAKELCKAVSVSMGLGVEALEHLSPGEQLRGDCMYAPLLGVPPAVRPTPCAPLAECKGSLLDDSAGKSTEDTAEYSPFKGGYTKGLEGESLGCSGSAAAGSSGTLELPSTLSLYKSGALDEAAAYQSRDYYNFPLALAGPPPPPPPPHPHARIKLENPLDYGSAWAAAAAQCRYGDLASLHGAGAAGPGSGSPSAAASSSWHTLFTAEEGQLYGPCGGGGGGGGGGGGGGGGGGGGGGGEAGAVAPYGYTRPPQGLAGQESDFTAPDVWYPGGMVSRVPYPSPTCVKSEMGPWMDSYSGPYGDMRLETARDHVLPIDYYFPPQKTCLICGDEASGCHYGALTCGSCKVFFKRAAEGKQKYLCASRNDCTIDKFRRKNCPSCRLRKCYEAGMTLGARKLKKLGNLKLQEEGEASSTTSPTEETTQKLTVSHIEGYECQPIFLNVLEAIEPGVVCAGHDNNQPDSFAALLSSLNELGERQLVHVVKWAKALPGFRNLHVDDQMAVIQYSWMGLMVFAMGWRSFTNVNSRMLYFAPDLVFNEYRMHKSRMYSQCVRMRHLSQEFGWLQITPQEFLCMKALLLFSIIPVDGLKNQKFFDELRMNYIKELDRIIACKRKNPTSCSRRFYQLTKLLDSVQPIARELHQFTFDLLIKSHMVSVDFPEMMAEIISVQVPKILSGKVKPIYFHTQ
# AR / CBP ternary complex, sequence (Q92793 2-2442): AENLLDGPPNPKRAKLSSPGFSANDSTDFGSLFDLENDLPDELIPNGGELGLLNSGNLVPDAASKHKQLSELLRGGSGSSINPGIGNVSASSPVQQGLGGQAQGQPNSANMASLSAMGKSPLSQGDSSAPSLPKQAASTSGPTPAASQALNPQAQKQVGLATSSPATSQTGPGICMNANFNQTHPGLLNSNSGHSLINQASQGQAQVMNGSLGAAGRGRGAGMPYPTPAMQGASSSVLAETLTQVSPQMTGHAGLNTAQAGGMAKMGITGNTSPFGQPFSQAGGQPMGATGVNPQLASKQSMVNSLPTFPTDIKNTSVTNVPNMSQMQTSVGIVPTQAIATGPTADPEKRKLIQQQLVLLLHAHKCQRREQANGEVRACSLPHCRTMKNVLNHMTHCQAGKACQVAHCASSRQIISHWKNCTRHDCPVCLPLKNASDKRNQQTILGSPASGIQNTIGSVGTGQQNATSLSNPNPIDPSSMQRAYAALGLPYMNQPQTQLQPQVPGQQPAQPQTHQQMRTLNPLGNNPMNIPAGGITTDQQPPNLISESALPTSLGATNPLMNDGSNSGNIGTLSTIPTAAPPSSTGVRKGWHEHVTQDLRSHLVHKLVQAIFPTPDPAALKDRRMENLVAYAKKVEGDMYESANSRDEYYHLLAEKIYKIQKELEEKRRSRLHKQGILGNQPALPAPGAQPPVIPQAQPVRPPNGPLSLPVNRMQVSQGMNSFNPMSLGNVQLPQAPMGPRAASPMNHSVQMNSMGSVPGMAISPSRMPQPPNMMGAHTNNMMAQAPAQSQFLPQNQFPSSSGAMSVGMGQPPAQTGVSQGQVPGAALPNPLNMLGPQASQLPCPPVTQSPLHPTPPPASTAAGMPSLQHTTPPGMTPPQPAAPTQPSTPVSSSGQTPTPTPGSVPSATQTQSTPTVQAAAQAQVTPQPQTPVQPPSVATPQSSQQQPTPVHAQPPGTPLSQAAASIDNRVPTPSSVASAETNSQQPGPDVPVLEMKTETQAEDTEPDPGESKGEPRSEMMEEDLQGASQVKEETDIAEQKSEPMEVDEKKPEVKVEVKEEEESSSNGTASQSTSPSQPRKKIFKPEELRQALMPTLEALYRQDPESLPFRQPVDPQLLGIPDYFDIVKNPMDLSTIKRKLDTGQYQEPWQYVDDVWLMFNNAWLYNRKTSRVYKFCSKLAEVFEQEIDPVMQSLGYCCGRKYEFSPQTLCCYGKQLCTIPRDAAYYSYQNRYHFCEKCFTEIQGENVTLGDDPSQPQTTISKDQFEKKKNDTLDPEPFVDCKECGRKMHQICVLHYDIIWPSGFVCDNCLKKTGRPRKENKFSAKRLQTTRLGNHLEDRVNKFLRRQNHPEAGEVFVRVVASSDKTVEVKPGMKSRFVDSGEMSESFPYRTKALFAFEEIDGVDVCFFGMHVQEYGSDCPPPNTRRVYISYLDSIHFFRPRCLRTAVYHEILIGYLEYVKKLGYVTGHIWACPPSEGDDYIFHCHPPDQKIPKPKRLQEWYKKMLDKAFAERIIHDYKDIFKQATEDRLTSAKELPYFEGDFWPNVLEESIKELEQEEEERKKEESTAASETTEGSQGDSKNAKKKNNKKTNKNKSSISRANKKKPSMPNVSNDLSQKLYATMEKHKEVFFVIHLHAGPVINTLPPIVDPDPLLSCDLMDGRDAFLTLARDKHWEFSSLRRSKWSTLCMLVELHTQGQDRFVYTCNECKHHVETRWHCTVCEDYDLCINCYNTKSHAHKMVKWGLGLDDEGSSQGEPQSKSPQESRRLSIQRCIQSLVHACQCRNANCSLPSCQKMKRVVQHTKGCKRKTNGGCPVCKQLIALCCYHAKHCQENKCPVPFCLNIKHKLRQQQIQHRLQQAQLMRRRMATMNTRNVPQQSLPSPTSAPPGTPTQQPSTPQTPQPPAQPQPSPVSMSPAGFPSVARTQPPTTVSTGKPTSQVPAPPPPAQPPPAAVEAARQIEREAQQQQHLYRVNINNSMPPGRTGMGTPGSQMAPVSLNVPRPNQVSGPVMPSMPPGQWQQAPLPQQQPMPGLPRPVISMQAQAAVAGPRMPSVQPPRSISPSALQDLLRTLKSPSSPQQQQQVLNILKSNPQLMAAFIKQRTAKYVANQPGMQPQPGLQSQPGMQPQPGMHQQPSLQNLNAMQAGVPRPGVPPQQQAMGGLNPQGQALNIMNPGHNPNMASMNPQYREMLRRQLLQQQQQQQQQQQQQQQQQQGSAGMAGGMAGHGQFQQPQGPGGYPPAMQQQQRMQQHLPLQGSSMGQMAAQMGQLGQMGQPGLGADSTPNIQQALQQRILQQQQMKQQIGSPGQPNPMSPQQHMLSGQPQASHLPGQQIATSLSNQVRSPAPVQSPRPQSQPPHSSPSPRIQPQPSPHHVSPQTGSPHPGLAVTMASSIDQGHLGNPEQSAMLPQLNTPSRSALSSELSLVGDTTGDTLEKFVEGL
SMILES,EC50 (AR / CBP ternary complex),IC50 (VCaP cells),IC50 (HEK-293 cells)
"CC(=O)N1CCc2c(c(N3CCCc4cc(-c5cnn(C)c5)c(C(F)F)cc43)nn2C2CCN(C(=O)COC3CCN(c4ccc(C(=O)N[C@H]5CC[C@H](Oc6ccc(C#N)c(Cl)c6)CC5)nn4)CC3)CC2)C1 [Compound 1, 6-[4-[2-[4-[5-acetyl-3-[7-(difluoromethyl)-6-(1-methylpyrazol-4-yl)-3,4-dihydro-2H-quinolin-1-yl]-6,7-dihydro-4H-pyrazolo[4,3-c]pyridin-1-yl]-1-piperidyl]-2-oxo-ethoxy]-1-piperidyl]-N-[4-(3-chloro-4-cyano-phenoxy)cyclohexyl]pyridazine-3-carboxamide]",< 1 nM,≤ 0.1 nM,> 10000 nM
"CC(=O)N1CCc2c(c(N3CCCc4cc(-c5cnn(C)c5)c(C)cc43)nn2C2CCN(CC3CCN(c4ccc(C(=O)N[C@H]5CC[C@H](Oc6ccc(C#N)c(C)c6)CC5)nn4)CC3(C)C)CC2)C1 (stereo partly drawn) [Compound 293, 6-[4-[[4-[5-acetyl-3-[7-methyl-6-(1-methylpyrazol-4-yl)-3,4-dihydro-2H-quinolin-1-yl]-6,7-dihydro-4H-pyrazolo[4,3-c]pyridin-1-yl]-1-piperidyl]methyl]-3,3-dimethyl-1-piperidyl]-N-[4-(4-cyano-3-methyl-phenoxy)cyclohexyl]pyridazine-3-carboxamide]",< 1 nM,≤ 0.1 nM,
"CC(=O)N1CCc2c(c(N3CCCc4cc(-c5cnn(C)c5)c(C)cc43)nn2C2CCN(C3CCC4(CC3)CN(c3ccc(C(=O)N[C@H]5CC[C@H](Oc6ccc(C#N)c(C)c6)CC5)nn3)C4)CC2)C1 [Compound 298, 6-[7-[4-[5-acetyl-3-[7-methyl-6-(1-methylpyrazol-4-yl)-3,4-dihydro-2H-quinolin-1-yl]-6,7-dihydro-4H-pyrazolo[4,3-c]pyridin-1-yl]-1-piperidyl]-2-azaspiro[3.5]nonan-2-yl]-N-[4-(4-cyano-3-methyl-phenoxy)cyclohexyl] pyridazine-3-carboxamide]",< 1 nM,0.1 to 1 nM,
CC(=O)N1CCc2c(c(N3CCCc4cc(-c5cnn(C)c5)c(C)cc43)nn2C2CCN(C3CCC4(CC3)CN(c3ccc(C(=O)N[C@H]5CC[C@H](Oc6ccc(C#N)c(C)c6C)CC5)nn3)C4)CC2)C1 [Compound 299],< 1 nM,≤ 0.1 nM,
"CC(=O)N1CCc2c(c(N3CCCc4cc(-c5cnn(C)c5)c(C)cc43)nn2C2CCN(C3CCC4(CC3)CN(c3ccc(C(=O)N[C@H]5CC[C@H](Oc6ccc(C#N)c(Cl)c6C)CC5)nn3)C4)CC2)C1 [Compound 300, 6-[7-[4-[5-acetyl-3-[7-methyl-6-(1-methylpyrazol-4-yl)-3,4-dihydro-2H-quinolin-1-yl]-6,7-dihydro-4H-pyrazolo[4,3-c]pyridin-1-yl]-1-piperidyl]-2-azaspiro[3.5]nonan-2-yl]-N-[4-(3-chloro-4-cyano-2-methyl-phenoxy)cyclohexyl]pyridazine-3-carboxamide]",< 1 nM,≤ 0.1 nM,

# Now from value to molecule, other results behind:
EC50 (AR / CBP ternary complex),IC50 (VCaP cells),SMILES,IC50 (HEK-293 cells)
< 1 nM,≤ 0.1 nM,"CC(=O)N1CCc2c(c(N3CCCc4cc(-c5cnn(C)c5)c(C)cc43)nn2C2CCN(CC3CCN(c4ccc(C(=O)N[C@H]5CC[C@H](Oc6ccc(C#N)c(Cl)c6C)CC5)nn4)CC3(C)C)CC2)C1 (stereo partly drawn) [Compound 291, 6-[4-[[4-[5-acetyl-3-[7-methyl-6-(1-methylpyrazol-4-yl)-3,4-dihydro-2H-quinolin-1-yl]-6,7-dihydro-4H-pyrazolo[4,3-c]pyridin-1-yl]-1-piperidyl]methyl]-3,3-dimethyl-1-piperidyl]-N-[4-(3-chloro-4-cyano-2-methyl-phenoxy)cyclohexyl]pyridazine-3-carboxamide]",
< 1 nM,≤ 0.1 nM,"CC(=O)N1CCc2c(c(N3CCCc4cc(-c5cnn(C)c5)c(C)cc43)nn2C2CCN(CC3CCN(c4ccc(C(=O)N[C@H]5CC[C@H](Oc6ccc(C#N)c(C)c6C)CC5)nn4)CC3(C)C)CC2)C1 (stereo partly drawn) [Compound 292, 6-[4-[[4-[5-acetyl-3-[7-methyl-6-(1-methylpyrazol-4-yl)-3,4-dihydro-2H-quinolin-1-yl]-6,7-dihydro-4H-pyrazolo[4,3-c]pyridin-1-yl]-1-piperidyl]methyl]-3,3-dimethyl-1-piperidyl]-N-[4-(4-cyano-2,3-dimethyl-phenoxy)cyclohexyl]pyridazine-3-carboxamide]",
